Measured values from patent publication US5077195A, “Polypeptides complementary to peptides or proteins having an amino acid sequence or nucleotide coding sequence at least partially known and methods of design therefor” (Board of Reagents, The University of Texas System, priority 1986, dated 1991).
Values joined by “and” are separate entries in the source; they are usually repeats but may differ in a detail not shown here. Equal values may be shown once. Values belong to the molecule of their own block, whether it stands above or below them. Where no end group is shown, it is not given here.

Legend:
I^125 ACTH (1-39) = target: T1, I^125 ACTH (1-39) (Homo sapiens, UniProt P01189); assay: ^125 I-ACTH binding to peptide-coated microtiter wells; conditions: for CPM bound ^125 I-ACTH: Table 10; for CPM Bound ^125 I-ATCH: Table 11
T1 construct: I^125 ACTH (1-39) (New England Nuclear Boston, MA); purchased New England Nuclear (Boston, MA)
T1 sequence (P01189 138-176 limits assumed): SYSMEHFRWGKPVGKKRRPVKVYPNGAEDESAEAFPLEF
Procedure: Utilizing techniques described in Example 1B, polyvinyl microtiter wells were coated with 3'-5' HTCA from a 1 mM solution thereof or with BSA.
The BSA and 3'-5' HTCA coated wells were washed and then treated with one of three solutions of I^125 ACTH (1-39) (New England Nuclear Boston, MA) having different concentrations. After a forty five minute incubation period the solution was removed and the microtiter wells extensively washed. The microtiter wells were separated and assayed for iodine^125content in a Beckman Gamma 5500 gamma counter. Bound ^125 I-ACTH was measured in duplicate at three concentrations in the absence and presence of excess unlabelled ACTH.
Utilizing the cRNA sequence and HTCA sequence shown in Table 8 of Example 1A, a series of peptides having a carboxy-terminal portion of the HTCA amino acid were synthesized. A pentamer (5-mer) contained the amino acid sequence: H2 N-Phe-His-Gly-Val-Arg-COOH. A decamer (10-mer) contained the amino acid sequence: H2 N-[…]COOH. A twenty membered peptide (20-mer) contained the amino acids sequence: H2 N-[…] Val-Arg-COOH. Each of thes peptides was used to coat microtiter wells and the coated wells tested for the ability to bind ^125 I-ACTH as described in Example 1C.
A 24-mer HTCA variant (R-HTCA) with reversed amino acid sequence directionality (amino-terminal and carboxy-terminal ends being reversed) was synthesized and had the following sequence: H2 N-[…] Arg-His-Leu-His-Val-Gly-COOH. The well-coating and ^125 I-ACTH binding procedures were performed as described in Example 1-C and the resultant data shown in Table 11.

LHRH = LHRH (Homo sapiens, UniProt P01148); assay: Reverse hemolytic plaque assay, LHRH-stimulated LH release from pituitary cells; type: cell-based
Procedure: A reverse hemolytic plaque assay (Smith, et al.), Method in Enzymology, 124, p.
Plaques were analyzed by determining plaque area with an image analysis (Bioquant or Image Technology Corp. Model 300) of 125×-500× microscopic enlargements.

^125 I-ACTH = target: T2, ^125 I-ACTH (Homo sapiens, UniProt P01189); assay: Solid-phase binding of ^125 I-ACTH to 5'-3' and 3'-5' complementary peptides; conditions: wells coated 2 mg/ml
T2 construct: ACTH plates+immunized rabbit immunoglobulin
T2 sequence (P01189 138-176 limits assumed): T1 sequence (P01189 138-176 limits assumed)
Procedure: A solid-phase binding assay was used to determine the ability of both the 5'-to-3' and the 3'-to-5'-complementary-RNA-strand peptides (see Examples 1A and 1C) to bind ^125 I-ACTH. The peptides were diluted in phosphate-buffered saline (140 mM-NaCl/3 mM-KCl/0.1% NaN3 /20 mM-phosphate buffer, pH 7.4) to 2 mg/ml, and 0.2 ml/well was placed into poly(vinyl chloride) micro-titre plates (Becton and Dickinson, Oxnard, CA, U.S.A.). After 18 h at 4° C., unbound peptide was removed by washing three times with phosphate-buffered saline containing 0.1% bovine serum albumin (Sigma Chemical Co., St. Louis, MO, U.S.A.). ^125 I-ACTH was diluted to various concentrations with phosphate-buffered saline containing 0.1% bovine serum albumin and incubated in peptide-coated wells for 60 minutes at 4° C. […] After incubation, unbound radiolabel was washed out with phosphate-buffered saline containing 0.1% bovine serum albumin, and the radioactivity of individual wells was measured by gamma-radiation counting. The amount of specifically bound radioactivity was determined by blocking ^125 I-ACTH binding with unlabelled ACTH. Additional controls included coating wells with insulin or bovine serum albumin (2 mg/ml) before the addition of the ^125 I-ACTH.

ACTH (1-24) = target: T3, ACTH (1-24) (Homo sapiens, UniProt P01189); assay: ELISA binding of ACTH to HTCA-coated microtiter wells
T3 construct: 10 ug synthetic ACTH (1-24) in PBS-Tween buffer; purchased Organon (West Orange, N.J.); host or cells: chemical synthesis
Procedure: From 1 to 25 micrograms (ug) per well of HTCA or insulin in carbonate-bicarbonate coating buffer were added to 96 well round bottom microtiter plates and incubated at 4° C. for 8 hr. The plates were then washed with phosphate buffered saline (PBS)-Tween 20 (Sigma Chemical Co., St. Louis, Mo.) buffer.
To the insulin-coated wells and to some of the HTCA-coated wells was added 10 ug synthetic ACTH (1-24) in PBS-Tween buffer. Control wells (HTCA alone) contained only PBS-Tween. The plates were incubated at room temperature for 2 hr. and then washed three times with PBS-Tween buffer. Rabbit antisera directed against the amide of synthetic ACTH 1-13 (Accurate Biochemicals, Westbury N.Y.) was added to each well and the plates were incubated for 1 hr at room temperature. Following 3 washes with PBS-Tween buffer, alkaline phosphatase-conjugated goat anti-rabbit Ig G (Miles Laboratories, Elkharbt, Ind.) in PBS-Tween buffer (1:300 dilution) was added. After inculation at room temperature for 1 hr, the plates were washed three times with PBS-Tween buffer and each well was treated with 200 microliters (ul) of p-nitrophenyl phosphate (1 mg/ml in carbonate-bicarbonate buffer) for 11/2 hr. at room temperature. The enzymatic reaction was then stopped by the addition of 3N NaOH (50 ul) to each well and the optical absorbance of p-nitrophenol the alkaline phosphatase product, was measured at 405 nm. The ACTH bound to the coated microtiter wells was measured by this enzyme-linked immunoabsorbent assay (ELISA).
A microtiter plate was prepared and treated generally as described above but was coated with 3.7 nmol/well HTCA. To each coated well was added a solution of 3.7 nmol ACTH combined with the amounts of HTCA designated on the abscissa in FIG. 4.

[1] = conc ^125 I-ATCH, + excess ACTH

Molecule: APAEVFHGVR [10-mer]
CPM bound ^125 I-ACTH (I^125 ACTH (1-39); conc ^125 I-ATCH): 8,927 CPM and 9,072 CPM
CPM bound ^125 I-ACTH (I^125 ACTH (1-39); [1]): 345 CPM and 350 CPM

Molecule: C[C@H](N)C(=O)NCC(=O)N[C@H]1CSSC[C@@H](C(=O)O)NC(=O)[C@H](CO)NC(=O)[C@H]([C@@H](C)O)NC(=O)[C@H](Cc2ccccc2)NC(=O)[C@H]([C@@H](C)O)NC(=O)[C@H](CCCCN)NC(=O)[C@H](Cc2c[nH]c3ccccc23)NC(=O)[C@H](Cc2ccccc2)NC(=O)[C@H](Cc2ccccc2)NC(=O)[C@H](CC(N)=O)NC(=O)[C@H](CCCCN)NC1=O [Somatostatin, reference compound]
plaque area, percentage response to control assay (LHRH; 5 × 10^-10 M LHRH + Somatostatin 10^-4 M, Exp. 1 (Pre)): 103%

Molecule: insulin: control coating protein [reference compound]
binding on control plates relative to binding to complementary peptide plates (^125 I-ACTH): less than 5%
binding of ACTH (1-24) to coated microtiter wells (in words) (ACTH (1-24); 10 ug ACTH, ELISA): not by insulin coated microtiter wells

Molecule: SRAQSIGPVL [5CA-LHRH, LEU--VAL--PRO--GLY--ILE--SER--GLN--ALA--ARG--SER]
plaque area, percentage response to control assay (LHRH; 5CA-LHRH alone 10^-5 M, Exp. 3): 2.7%
plaque area, percentage response to control assay (LHRH; 5CA-LHRH alone 10^-6 M, Exp. 3): 0.5%
plaque area, percentage response to control assay (LHRH; 5CA-LHRH alone 10^-7 M, Exp. 3): 0.5%
plaque area, percentage response to control assay (LHRH; 5 × 10^-10 M LHRH + 10^-4 M, Exp. 1 (Pre)): 77%
plaque area, percentage response to control assay (LHRH; LHRH + 10^-4 M, Exp. 2 (No)): 61%
plaque area, percentage response to control assay (LHRH; LHRH + 10^-4 M, Exp. 4 (Pre)): 52%
plaque area, percentage response to control assay (LHRH; LHRH + 10^-4 M, Exp. 5 (No)): 52%
plaque area, percentage response to control assay (LHRH; LHRH + 10^-5 M, Exp. 1 (Pre)): 82%
plaque area, percentage response to control assay (LHRH; LHRH + 10^-5 M, Exp. 2 (No)): 52%
plaque area, percentage response to control assay (LHRH; LHRH + 10^-5 M, Exp. 3 (Pre)): 68%
plaque area, percentage response to control assay (LHRH; LHRH + 10^-5 M, Exp. 4 (Pre)): 63%
plaque area, percentage response to control assay (LHRH; LHRH + 10^-5 M, Exp. 5 (No)): 70%
plaque area, percentage response to control assay (LHRH; LHRH + 10^-6 M, Exp. 1 (Pre)): 110%
plaque area, percentage response to control assay (LHRH; LHRH + 10^-6 M, Exp. 2 (No)): 74%
plaque area, percentage response to control assay (LHRH; LHRH + 10^-6 M, Exp. 3 (Pre)): 98%
plaque area, percentage response to control assay (LHRH; LHRH + 10^-6 M, Exp. 4 (Pre)): 81%
plaque area, percentage response to control assay (LHRH; LHRH + 10^-6 M, Exp. 5 (No)): 81%
plaque area, percentage response to control assay (LHRH; LHRH + 10^-7 M, Exp. 1 (Pre)): 101%
plaque area, percentage response to control assay (LHRH; LHRH + 10^-7 M, Exp. 2 (No)): 74%
plaque area, percentage response to control assay (LHRH; LHRH + 10^-7 M, Exp. 3 (Pre)): 88%
plaque area, percentage response to control assay (LHRH; LHRH + 10^-7 M, Exp. 4 (Pre)): 78%
plaque area, percentage response to control assay (LHRH; LHRH + 10^-7 M, Exp. 5 (No)): 115%
plaque area, percentage response to control assay (LHRH; LHRH + 10^-8 M, Exp. 1 (Pre)): 105%
plaque area, percentage response to control assay (LHRH; LHRH + 10^-8 M, Exp. 2 (No)): 83%
plaque area, percentage response to control assay (LHRH; LHRH + 10^-8 M, Exp. 4 (Pre)): 96%
plaque area, percentage response to control assay (LHRH; LHRH + 10^-8 M, Exp. 5 (No)): 92%
plaque area, percentage response to control assay (LHRH; LHRH + 10^-9 M, Exp. 1 (Pre)): 119%
plaque area, percentage response to control assay (LHRH; LHRH + 10^-9 M, Exp. 2 (No)): 84%
plaque area, percentage response to control assay (LHRH; LHRH + 10^-9 M, Exp. 4 (Pre)): 95%
plaque area, percentage response to control assay (LHRH; LHRH + 10^-9 M, Exp. 5 (No)): 123%

Molecule: FHGVR [5-mer, H2 N-Phe-His-Gly-Val-Arg-COOH]
CPM bound ^125 I-ACTH (I^125 ACTH (1-39); 1:3 dilution ^125 I-ATCH): 3,514 CPM and 3,655 CPM
CPM bound ^125 I-ACTH (I^125 ACTH (1-39); 1:3 dilution ^125 I-ATCH, + excess ACTH): 97 CPM and 95 CPM
CPM bound ^125 I-ACTH (I^125 ACTH (1-39); 1:9 dilution ^125 I-ATCH): 995 CPM and 993 CPM
CPM bound ^125 I-ACTH (I^125 ACTH (1-39); [1]): 233 CPM and 245 CPM

Next, values leading:

CPM bound ^125 I-ACTH (I^125 ACTH (1-39); 1:3 dilution ^125 I-ATCH): 613 CPM and 625 CPM
Molecule: HRAPLLAHRLAPAEVFHGVR [20-mer]

binding of ^125 I-ACTH to coated wells (in words) (I^125 ACTH (1-39)): significant affinity for ACTH
CPM Bound ^125 I-ATCH (I^125 ACTH (1-39); 1:9 dil. ^125 I-ATCH): 1,101 CPM and 1,161 CPM
CPM Bound ^125 I-ATCH (I^125 ACTH (1-39); 1:9 dil. ^125 I-ATCH, + Excess ACTH): 65 CPM and 69 CPM
CPM Bound ^125 I-ATCH (I^125 ACTH (1-39); conc ^125 I-ATCH): 10,392 CPM and 10,709 CPM
Molecule: RVGHFVEAPALRHALLPARHLHVG [R-HTCA]

ACTH-HTCA binding that was specific (ACTH (1-24); 3.7 nmol/well HTCA coating, competition with soluble HTCA): about 90%
Kd (ACTH (1-24); wells coated with 3.7 nmol/well HTCA, 3.7 nmol ACTH, read-out: Kd (Scatchard analysis) of ACTH-HTCA binding): 1900 nM
Molecule: GVHLHRAPLLAHRLAPAEVFHGVR [HTCA]
